The record followed here is doi:10.1101/2024.08.19.608619, “Discovery of potent SARS-CoV-2 nsp3 macrodomain inhibitors uncovers lack of translation to cellular antiviral response” (bioRxiv, 2024).

A short description of data set [1]: Hepatic microsomal stability, MLM. It is filed as in vitro ADME.
Data set [2] is described as follows: In vitro kinetic solubility. The following applies: In vitro kinetic solubility, ph 7.4.
The nature of data set [3]: Permeability Papp (AB) MDR1/MDCKII. The following applies: In vitro MDR1-MDCKII permeability; for papp_a_to_b_mean: A to B; for perc_recovery_a_to_b_mean: recovery A to B.
Data set [4] can be described thus: Hepatic microsomal stability, HLM. To be noted: In vitro human liver microsomal stability; for perc_remaining_no_cofactor: no cofactor. The class given is in vitro ADME, human. In general terms: Microsomes from liver hold many membrane-bound enzymes, among them those of drug oxidation.
The nature of another data set: LogD. To be noted: pH 7.4; In vitro LogD.
Setting [5] is: In vitro mouse liver microsomal stability.
Setting [6] is: In vitro mouse liver microsomal stability; no cofactor.
Where [7] appears, read: In vitro mouse liver microsomal stability, no cofactor.

Each structure is given as a SMILES string. Values after ≈ are worked out from the molar mass of the structure shown. Some results are limits rather than exact numbers.

In data set [1] (setting [5]), `O=C(Nc1cccc2c(C(=O)N[C@H]3c4ccccc4C[C@H]3C(=O)O)c[nH]c12)NC1CC1` (racemic) [ASAP-0000627] displayed a clint of 4.0 µL/min/mg, a perc_remaining of 95.0% and a t_half of 453.6 min. Also, in data set [1] (setting [6]), the perc_remaining_no_cofactor was determined as 105.0%. In addition, in data set [2], the solubility_mean is at least 400 µM. In addition, in data set [3] (mean), the papp_a_to_b_mean stood at 1.8 ×10⁻⁶ cm/s and the perc_recovery_a_to_b_mean is listed as 81.0%. In data set [4], the clint is 6.0 µL/min/mg, the perc_remaining is listed as 88.0%, the t_half came out at 279.8 min and the perc_remaining_no_cofactor stood at 86.0%. The logd in “LogD” is given as -0.05.

In data set [1] (setting [5]), `CC(C)(C)[C@H](Nc1ncnc2[nH]c(-c3cnn(CC(N)=O)c3)cc12)c1ccc2c(c1)OCCO2` (racemic) [ASAP-0008581] yielded a clint of 47.0 µL/min/mg, a perc_remaining of 46.0% and a t_half of 35.2 min. Also, the perc_remaining_no_cofactor in data set [1] (setting [7]) came out at 107.0%. Moreover, in data set [2], the solubility_mean came out at 195 µM (≈ 90 µg/mL). In data set [3] (mean), the papp_a_to_b_mean came out at 1.66 ×10⁻⁶ cm/s and the perc_recovery_a_to_b_mean came out at 94.7%. In data set [4], the clint is 133.0 µL/min/mg, the perc_remaining is on record as 11.0%, the t_half came to 12.6 min and the perc_remaining_no_cofactor turned out to be 87.0%. The compound further yielded a logd in “LogD” of 3.2.

`CC(C)[C@H](Nc1ncnc2[nH]c(-c3cnn(CC(N)=O)c3)cc12)c1ccc2c(c1)NC(=O)CO2` (racemic) [ASAP-0008621]: in data set [1] (setting [5]), the clint turned out to be 11.0 µL/min/mg, the perc_remaining is given as 84.0% and the t_half came to 155.8 min. Further, the perc_remaining_no_cofactor in data set [1] (setting [7]) turned out to be 102.0%. Further, the solubility_mean in data set [2] came out at 25 µM (≈ 11.5 µg/mL). Also, in data set [3] (mean), the papp_a_to_b_mean stood at 1.36 ×10⁻⁶ cm/s and the perc_recovery_a_to_b_mean was determined as 98.0%. Further, in data set [4], the clint was found to be 17.0 µL/min/mg, the perc_remaining was found to be 73.0%, the t_half was found to be 99.2 min and the perc_remaining_no_cofactor was 91.0%. The compound further registered a logd in “LogD” of 2.5.

For the compound `COc1ccc2c(c1)CCN(c1ncnc3[nH]ccc13)[C@H]2C(C)C` (racemic) [ASAP-0000502], in data set [1] (setting [5]), the clint was found to be 321.0 µL/min/mg, the perc_remaining came to 1.0% and the t_half is 5.2 min. Further, in data set [1] (setting [6]), the perc_remaining_no_cofactor is 83.0%. This compound showed a solubility_mean in data set [2] of 14 µM (≈ 4.51 µg/mL). Besides, in data set [3] (mean), the papp_a_to_b_mean was 7.0 ×10⁻⁶ cm/s and the perc_recovery_a_to_b_mean is on record as 32.0%. Also, in data set [4], the clint is 60.0 µL/min/mg, the perc_remaining came to 38.0%, the t_half is given as 27.8 min and the perc_remaining_no_cofactor is reported as 103.0%. The same compound returned a logd in “LogD” of 4.33.

`COCCNC(=O)c1c[nH]c2ncnc(N[C@H](c3ccc4c(c3)S(=O)(=O)CCC4)C(C)C)c12` (racemic) [ASAP-0008650]: in data set [1] (setting [5]), the clint turned out to be 888.0 µL/min/mg, the perc_remaining came out at 0.0% and the t_half was found to be 1.9 min. The perc_remaining_no_cofactor in data set [1] (setting [7]) is listed as 99.0%. In data set [2], the solubility_mean was determined as 378 µM (≈ 178 µg/mL). In data set [3] (mean), this compound had a papp_a_to_b_mean of 1.62 ×10⁻⁶ cm/s and a perc_recovery_a_to_b_mean of 73.3%. For the same compound, in data set [4], the clint is 540.0 µL/min/mg, the perc_remaining amounted to 0.0%, the t_half was found to be 3.1 min and the perc_remaining_no_cofactor was 106.0%. The compound further gave a logd in the data set “LogD” of 2.8.

For the compound `CC(C)[C@H](Nc1ncnc2[nH]c(-c3cnn(C)c3C#N)cc12)c1ccc2c(c1)NC(=O)CO2` (racemic) [ASAP-0008576], in data set [1] (setting [5]), the clint came to 177.0 µL/min/mg, the perc_remaining is 6.0% and the t_half amounted to 9.4 min. For the same compound, the perc_remaining_no_cofactor in data set [1] (setting [7]) was 97.0%. This compound also yielded a solubility_mean in data set [2] of 69 µM (≈ 30.5 µg/mL). Moreover, in data set [3] (mean), the papp_a_to_b_mean was 3.07 ×10⁻⁶ cm/s and the perc_recovery_a_to_b_mean came to 80.1%. Moreover, in data set [4], the clint came out at 100.0 µL/min/mg, the perc_remaining stood at 18.0%, the t_half is recorded as 16.6 min and the perc_remaining_no_cofactor stood at 93.0%. Besides, the logd in the data set “LogD” worked out at 4.1.

With `CC(C)[C@H](Nc1ncnc2[nH]ccc12)c1ccc2c(c1)NC(=O)CO2` [ASAP-0008430], in data set [1] (setting [5]), the clint was determined as 37.0 µL/min/mg, the perc_remaining came out at 54.0% and the t_half was found to be 45.1 min. Further, the perc_remaining_no_cofactor in data set [1] (setting [6]) amounted to 89.0%. The same compound yielded a solubility_mean in data set [2] of 371 µM (≈ 125 µg/mL). In data set [3] (mean), this compound returned a papp_a_to_b_mean of 3.4 ×10⁻⁶ cm/s and a perc_recovery_a_to_b_mean of 90.0%. In addition, in data set [4], the clint is 10.0 µL/min/mg, the perc_remaining amounted to 86.0%, the t_half came to 160.3 min and the perc_remaining_no_cofactor worked out at 95.0%. This compound also had a logd in the data set “LogD” of 1.8.

On to `CC(C)[C@H](Nc1ncnc2[nH]c(-c3cnn(C)c3C#N)cc12)c1ccc2c(c1)OCCO2` [ASAP-0010980], for which, in data set [1] (setting [5]), the clint was 257.0 µL/min/mg, the perc_remaining was 2.0% and the t_half came to 6.5 min. Besides, the perc_remaining_no_cofactor in data set [1] (setting [7]) came out at 113.0%. The compound also yielded a solubility_mean in data set [2] of 15 µM (≈ 6.44 µg/mL). In data set [3] (no inhibitor), this compound registered a papp_a_to_b_mean of 5.56 ×10⁻⁶ cm/s and a perc_recovery_a_to_b_mean of 39.3%. Moreover, in data set [4], the clint was determined as 706.0 µL/min/mg, the perc_remaining was 1.0%, the t_half turned out to be 2.4 min and the perc_remaining_no_cofactor is given as 103.0%. Moreover, the logd in “LogD” is recorded as 3.3.

`CNC(=O)c1c[nH]c2ncnc(N[C@H](c3ccc4c(c3)S(=O)(=O)CCC4)C(C)C)c12` (racemic) [ASAP-0008641]: in data set [1] (setting [5]), the clint came out at 192.0 µL/min/mg, the perc_remaining was determined as 3.0% and the t_half worked out at 8.7 min. Further, the perc_remaining_no_cofactor in data set [1] (setting [7]) turned out to be 92.0%. In addition, the solubility_mean in data set [2] is 390 µM (≈ 167 µg/mL). In data set [3] (mean), the papp_a_to_b_mean was 2.23 ×10⁻⁶ cm/s and the perc_recovery_a_to_b_mean is listed as 79.1%. In data set [4], the clint worked out at 131.0 µL/min/mg, the perc_remaining is reported as 11.0%, the t_half is recorded as 12.8 min and the perc_remaining_no_cofactor was determined as 104.0%. In addition, the logd in “LogD” worked out at 2.5.

In data set [1] (setting [5]), `CNC(=O)c1cc2c(N[C@@H](c3ccc4c(c3)NC(=O)CO4)C(C)C)ncnc2[nH]1` [ASAP-0011219] gave a clint of 33.0 µL/min/mg, a perc_remaining of 57.0% and a t_half of 51.2 min. In addition, the perc_remaining_no_cofactor in data set [1] (setting [7]) is listed as 99.0%. Also, the solubility_mean in data set [2] is 380 µM (≈ 150 µg/mL). Further, in data set [3] (mean), the papp_a_to_b_mean is 1.21 ×10⁻⁶ cm/s and the perc_recovery_a_to_b_mean was determined as 105.0%. Moreover, in data set [4], the clint is 175.0 µL/min/mg, the perc_remaining was 6.0%, the t_half came to 9.6 min and the perc_remaining_no_cofactor came out at 96.0%. Further, in the data set “LogD”, the logd amounted to 2.9.
